From patent US8455553B2, “Methods and compositions for prevention and treatment of inflammatory disease, autoimmune disease and transplant rejection” (The Regents of the University of California, priority 2001, dated 2013)
“Also recorded” adds a separate entry of the source. Like-named read-outs stand apart in the source and are kept apart here.

Columns and labels:
[1] = tested on: MBP-TCR+/STAT1- mice developing spontaneous paralysis; test: Experimental autoimmune encephalomyelitis (EAE), model for multiple sclerosis; format: in vivo
Source text: Experimental autoimmune encephalomyelitis (EAE) represents a murine model for multiple sclerosis, a TH1 cells mediated demyelinating autoimmune disorder. In this modes, STAT1-deficient mice (Jackson Laboratories, Maine, USA) were crossed with mice carrying a tansgenic T cell receptor against Myelin Basis Protein (MBP) [Lafaille et al. (1994) Cell 78(3):399-408]. The resulting MBP-TCR^+/STAT1^− mice, when on an H2b/u or H2u/u background develop spontaneous paralysis. Typically, in this transgenic system, the disease progresses from early signs of hind leg paralysis (level 2) to the moribund stage of lethal paralysis (level 5) within 4-5 days.
Three mice showing clear signs of hind leg paralysis were injected s.c. with 1 mg piceatannol every 48 hours (FIG. 10). Under this regimen these animals survived for 30 days, at which time piceatannol administration was stopped.

[2] = tested on: septic shock induced by 1000 μg LPS intraperitoneally in mice; test: Septic shock, high dose model (1000 μg LPS), lethality; format: in vivo; conditions: for Mortality, percent dead: Table 3, High Dose Model (1000 μg LPS), 1000 μM pre, 500 μM SC post every 12; for Mortality caused by septic shock: intraperitoneal administration prior to LPS challenge coupled with subcutaneous administration following LPS challenge (Table 3)
Procedure: (§1) Endotoxic shock was induced by intraperitoneal injection of 1 μg LPS into laboratory mice in the presence of 20 mg D-galactosamine (D-Gal). This regimen leads to a 90-100% lethality rate by 9-12 hours post injection. The following data in Tables 1-3 reports the mortality rate over 28 days of observation. In one experiment, animals were treated intra peritoneally with piceatannol.
In another experiment, 1 mg of LPS was administered intraperitoneally. Piceatannol or tetramethoxy-piceatannol (TMP) were administered intraperitoneally prior to LPS treatment, with some mice receiving subcutaneous doses of either piceatannol or TMP following LPS administration.

[3] = cited from earlier work
TNFα = test: Production of TNFα in response to LPS in vitro; format: cell-based
tyrosine kinase Syk = conditions: Geahlen, et al. (1989); cited from earlier work
Ovalbumin immunized mice = test: Ovalbumin asthma model, cell infiltration in bronchioalveolar lavage fluid; format: in vivo; conditions: 1 mg i.p. daily, FIG. 11
Procedure: Mice (8 animals) were immunized by intraperitoneal (i.p.) injection of Ovalbumin after 2 weeks, The OA solution was administered into the nasal passage by inhalation without (4) or with (4) concurrent piceatannol regimen (1 mg i.p. daily).

IL-6 = test: Production of IL-6 in response to LPS in vitro; format: cell-based
[4] = tested on: endotoxic shock induced by intraperitoneal injection of 1 μg LPS in the presence of 20 mg D-galactosamine in laboratory mice; test: Endotoxic shock, low dose model (1 μg LPS + D-Gal), lethality; format: in vivo; conditions: for Mortality, percent dead: Table 3, Low Dose Model (1 μg LPS + D-Gal); for Mortality caused by septic shock: intraperitoneal administration prior to LPS challenge (Table 3)
Procedure: Endotoxic shock was induced by intraperitoneal injection of 1 μg LPS into laboratory mice in the presence of 20 mg D-galactosamine (D-Gal). This regimen leads to a 90-100% lethality rate by 9-12 hours post injection. The following data in Tables 1-3 reports the mortality rate over 28 days of observation. In one experiment, animals were treated intra peritoneally with piceatannol. […]

tyrosine kinase Tyk2 = tyrosine kinase Tyk2 (Homo sapiens, UniProt P29597); conditions: Su, et al. (2000); cited from earlier work
[5] = tested on: mice that had received piceatannol alone; test: Toxicity of piceatannol alone in mice; format: in vivo; conditions: for Lethality rate: no LPS
Procedure: as §1

tyrosine kinase ZAP70 = biological target: T1, tyrosine kinase ZAP70 (Homo sapiens, UniProt P43403); conditions: Geahlen, et al. (1989); cited from earlier work
T1 sequence (P43403 1-619): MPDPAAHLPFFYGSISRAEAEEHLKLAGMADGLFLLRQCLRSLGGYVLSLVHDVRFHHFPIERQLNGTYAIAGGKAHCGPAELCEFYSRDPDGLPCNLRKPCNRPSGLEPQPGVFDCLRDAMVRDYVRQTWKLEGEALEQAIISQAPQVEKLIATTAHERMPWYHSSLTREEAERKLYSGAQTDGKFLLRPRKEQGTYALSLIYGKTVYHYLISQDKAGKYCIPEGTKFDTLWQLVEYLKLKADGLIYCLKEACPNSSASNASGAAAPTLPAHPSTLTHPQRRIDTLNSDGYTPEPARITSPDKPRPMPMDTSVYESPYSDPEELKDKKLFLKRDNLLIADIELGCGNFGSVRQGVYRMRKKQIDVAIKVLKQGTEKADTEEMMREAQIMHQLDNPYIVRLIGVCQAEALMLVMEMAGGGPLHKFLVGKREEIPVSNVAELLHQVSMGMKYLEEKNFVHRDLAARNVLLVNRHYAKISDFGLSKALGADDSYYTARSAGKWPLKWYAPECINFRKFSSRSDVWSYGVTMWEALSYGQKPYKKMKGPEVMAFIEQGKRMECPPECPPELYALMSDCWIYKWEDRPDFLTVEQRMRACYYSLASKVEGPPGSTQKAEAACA

[6] = tested on: LPS induced gene expression (RANTES, MCP-1, ISG54, TNF); test: LPS induced gene expression (interferon regulated genes) in vitro; format: cell-based

Chain of tyrosine kinase Tyk2 (P29597 whole entry): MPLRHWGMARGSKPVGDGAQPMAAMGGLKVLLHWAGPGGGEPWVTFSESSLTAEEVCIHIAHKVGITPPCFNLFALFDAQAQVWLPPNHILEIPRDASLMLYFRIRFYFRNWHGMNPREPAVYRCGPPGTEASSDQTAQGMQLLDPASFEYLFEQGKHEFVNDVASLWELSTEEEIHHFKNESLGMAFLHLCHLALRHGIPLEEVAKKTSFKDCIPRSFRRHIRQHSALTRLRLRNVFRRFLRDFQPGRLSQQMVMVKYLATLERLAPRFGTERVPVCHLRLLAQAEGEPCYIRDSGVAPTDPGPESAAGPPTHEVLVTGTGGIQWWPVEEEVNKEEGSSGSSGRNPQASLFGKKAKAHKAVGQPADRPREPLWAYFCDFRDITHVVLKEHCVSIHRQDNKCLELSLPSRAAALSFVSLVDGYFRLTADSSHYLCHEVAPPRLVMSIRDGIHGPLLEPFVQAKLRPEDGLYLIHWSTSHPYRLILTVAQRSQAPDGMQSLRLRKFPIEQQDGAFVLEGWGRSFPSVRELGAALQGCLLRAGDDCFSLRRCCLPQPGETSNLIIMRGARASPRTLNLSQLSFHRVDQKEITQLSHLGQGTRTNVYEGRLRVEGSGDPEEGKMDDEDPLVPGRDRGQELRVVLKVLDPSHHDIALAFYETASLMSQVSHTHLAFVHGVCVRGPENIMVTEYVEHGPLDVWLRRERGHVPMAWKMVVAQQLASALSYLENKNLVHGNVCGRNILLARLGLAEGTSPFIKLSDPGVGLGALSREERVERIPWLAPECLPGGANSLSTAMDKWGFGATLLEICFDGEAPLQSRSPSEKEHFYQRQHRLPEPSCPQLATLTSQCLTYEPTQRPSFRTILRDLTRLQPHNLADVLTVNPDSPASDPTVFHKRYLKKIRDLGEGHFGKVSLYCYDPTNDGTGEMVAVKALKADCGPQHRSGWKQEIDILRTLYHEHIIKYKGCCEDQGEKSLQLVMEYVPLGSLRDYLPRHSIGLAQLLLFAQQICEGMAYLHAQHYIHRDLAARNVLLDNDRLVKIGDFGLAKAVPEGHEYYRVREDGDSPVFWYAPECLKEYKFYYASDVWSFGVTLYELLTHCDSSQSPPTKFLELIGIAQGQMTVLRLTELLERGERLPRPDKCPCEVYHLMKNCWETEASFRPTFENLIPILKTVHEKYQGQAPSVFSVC

Oc1cc(O)cc(/C=C/c2ccc(O)c(O)c2)c1 [Piceatannol, 3,3′,4,5′-tetrahydroxy-trans-stilbene]
Time to complete paralysis and death after administration was stopped ([1]; after 30 days of 1 mg s.c. every 48 hours): Ten | Disease progression ([1]; for the duration of administration, 1 mg s.c. every 48 hours): completely halted disease progression | Survival under treatment ([1]; three mice with hind leg paralysis, 1 mg s.c. every 48 hours, administration stopped at that time): 30 days | Lethality rate ([2]; Table 1, LPS 1000 μg ip, piceatannol 500 → 1000 μg ip, 28 days of observation): 3/8 | Mortality, percent dead [2]: 50% | Mortality caused by septic shock [2]: significantly reduced mortality | Water solubility [3]: partially water soluble | Water solubility ([3]; listed as piceatannol): water soluble | Production of TNFα in response to LPS (TNFα): inhibited | Inhibition of tyrosine kinase Syk (tyrosine kinase Syk): inhibitor | Eosinophils infiltration into the lungs (Ovalbumin immunized mice): significant reduction | Lymphocytes infiltration into the lungs (Ovalbumin immunized mice): significant reduction | Production of IL-6 in response to LPS (IL-6): inhibited | Lethality rate ([4]; Table 1, LPS 1 μg (+D-Gal) ip, piceatannol 250 μg ip, 28 days of observation): 5/12 | Lethality rate ([4]; Table 1, LPS 1 μg (+D-Gal) ip, piceatannol 500 μg ip, 28 days of observation): 0/8 | Lethality rate ([4]; Table 2, LPS + D-Gal 1 μg ip, piceatannol 250 μg (ip)): 3/8 | Lethality rate ([4]; Table 2, LPS + D-Gal 1 μg ip, piceatannol 250 μg (iv) + 250 μg (ip)): 0/6 | Lethality rate ([4]; Table 2, LPS + D-Gal 1 μg ip, piceatannol 400 μg (ip)): 0/2 | Mortality, percent dead ([4]; 400 μM ip prior to LPS): 48% | Mortality, percent dead ([4]; 1000 μM ip prior to LPS): 35% | Animals rescued ([4]; administration several hours after LPS challenge, animal model of sepsis): approximately 50% | Protection against endotoxic shock ([4]; combined intravenous and intraperitoneal administration): up to 100% | Mortality caused by septic shock [4]: significantly reducing mortality | Death associated with endotoxic shock ([4]; single administration by either the intravenous or intraperitoneal route): significantly reduced death | Protection against endotoxic shock ([4]; single administration, animal model of sepsis): up to 100% | Inhibition of tyrosine kinase Tyk2 (tyrosine kinase Tyk2): potent inhibitor | Lethality rate ([5]; Table 1, piceatannol 1000 μg intraperitoneal, dead/total, 28 days of observation): 0/8 | Lethality rate ([5]; Table 2, piceatannol 1000 μg (ip)): 0/6 | Lethality rate ([5]; Table 2, piceatannol 1000 μg (iv)): 0/2 | Toxicity in vivo (overall statement) ([5]; data of Tables 1 and 2 / Examples 1 and 3): very low toxicity; also recorded: low toxicity | Acute or chronic toxicity ([5]; healthy animals, repeated high dose (1 mg) intraperitoneal injections): did not detect any acute or chronic toxicity | Acute toxicity (within 2 hours post-injection) ([5]; piceatannol alone, up to 1 mg intraperitoneal or intravenously): no signs of acute (i.e., within 2 hours post-injection) toxicity | Delayed toxicity ([5]; with or without subsequent LPS injection, monitored for several weeks): no signs of delayed toxicity | Inhibition of tyrosine kinase ZAP70 (tyrosine kinase ZAP70): inhibitor | Concentration that blocks LPS induced gene expression (e.g., RANTES, MCP-1, TNF) [6]: micromolar range | Concentration that blocks LPS induced gene expression (e.g., RANTES, MCP-1, ISG54) ([6]; in vitro): micromolar concentrations; also recorded: micromolar range

COc1cc(/C=C/c2ccc(OC)c(OC)c2)cc(OC)c1 [TMP, tetramethoxy-piceatannol]
Mortality, percent dead [2]: 44% | Mortality caused by septic shock [2]: significantly reduced mortality | Mortality, percent dead ([4]; 1000-1250 μM ip prior to LPS): 38% | Mortality caused by septic shock [4]: significantly reducing mortality | Inhibition of LPS-mediated ISG induction, compared with piceatannol ([6]; in vitro): as effective as piceatannol

Oc1ccc(/C=C/c2cc(O)cc(O)c2)cc1 [resveratrol, trihydroxy-stilbene]
Water solubility [3]: water soluble
